Source: US20250170122A1, “CERTAIN CHEMICAL ENTITIES, COMPOSITIONS AND METHODS” (Intellikine LLC, priority 2009, published 2025)
“Also recorded” adds a separate entry of the source.

Legend:
basophilic granulocytes = assay: Basotest assay; type: cell-based; details: heparinized whole blood; dust mite or grass extract
Method: The baseotest assay is performed using Orpegen Pharma Basotest reagent kit. Heparinized whole blood is pre-incubated with test compound or solvent at 37° C. for 20 min. Blood is then incubated with assay kit stimulation buffer (to prime cells for response) followed by allergen (dust mite extract or grass extract) for 20 min. The degranulation process is stopped by incubating the blood samples on ice. The cells are then labeled with anti-IgE-PE to detect basophilic granulocytes, and anti-gp53-FITC to detect gp53 (a glycoprotein expressed on activated basophils). After staining red blood cells are lysed by addition of Lysing Solution. Cells are washed, and analyzed by flow cytometry.

[1] = test system: collagen induced developing arthritis model; assay: Rat developing type II collagen induced arthritis assay; type: in vivo; details: for increase in ankle diameter over time: dose not stated
Method: In order to study the effects of the compounds of the present invention on the autoimmune disease arthritis, a collagen induced developing arthritis model was used. Female Lewis rats were given collagen injections at day 0. Bovine type II collagen was prepared as a 4 mg/ml solution in 0.01 N acetic acid. Equal volumes of collagen and Freund's incomplete adjuvant were emulsified by hand mixing until a bead of the emulsified material held its form in water. Each rodent received a 300 μl injection of the mixture at each injection time spread over three subcutaneous sites on the back.
Oral compound administration began on day 0 and continued through day 16 with vehicle (5% NMP, 85% PEG 400, 10% Solutol) or compounds of the present invention in vehicle or control (e.g. methotrexate) at 12 hour intervals daily. Rats were weighed on days 0, 3, 6, 9-17 and caliper measurements of ankles taken on days 9-17. Final body weights were taken, and then the animals were euthanized on day 17. After euthanization, blood was drawn and hind paws and knees were removed. Blood was further processed for pharmacokinetics experiments as well as an anti-type II collagen antibody ELISA assay. Hind paws were weighed and then with the knees preserved in 10% formalin. The paws and knees were subsequently processed for microcopy. Livers, spleen and thymus were also weighed. Sciatic nerves were prepared for histopathology.
Knee and ankle joints were fixed for 1-2 days and decalcified for 4-5 days. Ankle joints were cut in half longitudinally, knees were cut in half along the frontal plane. Joints were then processed, embedded, sectioned and stained with toluidine blue. Scoring of the joints was done according to the following criteria:
Percent inhibition of paw weight and AUC was calculated using the following formula:
% Inhibition=A−B/A×100 • A=Mean Disease Control—Mean Normal • B=Mean Treated—Mean Normal

[2] = test system: adjuvant induced arthritis model; assay: Adjuvant induced arthritis assay; type: in vivo
Method: Isoflurane-anesthetized Lewis rats (200-250 g) were implanted with an intrathecal (IT) catheter. After a 6 d recovery period, all animals except those that appeared to have sensory or motor abnormalities (fewer than 5% of the total number) were used for experiments. For IT administration, 10 μl of drug or saline followed by 10 μl of isotonic saline was injected through the catheter.
Lewis rats were immunized at the base of the tail with 0.1 ml of complete Freund's adjuvant (CFA) on day 0 several days after catheter implantation (n=6/group). Drug (e.g. one or more compounds of the present invention or vehicle) treatment was generally started on day 8 and continued daily until day 20. Clinical signs of arthritis generally begin on day 10, and paw swelling was determined every second day by water displacement plethysmometry.

[3] = test system: established type II collagen induced arthritis; assay: Rat established type II collagen induced arthritis assay; type: in vivo; details: oral
Method: In order to examine the dose responsive efficacy of the compounds of the present invention in inhibiting the inflammation, cartilage destruction and bone resorption of 10 day established type II collagen induced arthritis in rats, compounds were administered orally daily or twice daily for 6 days.
Female Lewis rats were anesthetized and given collagen injections prepared and administered as described previously on day 0. On day 6, animals were anesthetized and given a second collagen injection. Caliper measurements of normal (pre-disease) right and left ankle joints were performed on day 9. On days 10-11, arthritis typically occurred and rats were randomized into treatment groups. Randomization was performed after ankle joint swelling was obviously established and there was good evidence of bilateral disease.
After an animal was selected for enrollment in the study, treatment was initiated by the oral route. Animals were given vehicle, control (Enbrel) or compound doses, twice daily or once daily (BID or QD respectively). Dosing was administered on days 1-6 using a volume of 2.5 ml/kg (BID) or 5 ml/kg (QD) for oral solutions. Rats were weighed on days 1-7 following establishment of arthritis and caliper measurements f ankles taken every day. Final body weights were taken on day 7 and animals were euthanized.

[4] = test system: p110δ or p110γ relative to p110α, p110β, DNAPK and/or mTor
Method: IC50 values are measured using either a standard TLC assay for lipid kinase activity (described below) or a high-throughput membrane capture assay. Kinase reactions are performed by preparing a reaction mixture containing kinase, inhibitor (2% DMSO final concentration), buffer (25 mM HEPES, pH 7.4, 10 mM MgCl2), and freshly sonicated phosphatidylinositol (100 μg/ml). Reactions are initiated by the addition of ATP containing 10 μCi of γ-32P-ATP to a final concentration 10 or 100 μM and allowed to proceed for 5 minutes at room temperature. For TLC analysis, reactions are then terminated by the addition of 105 μl 1N HCl followed by 160 μl CHCl3:MeOH (1:1). The biphasic mixture is vortexed, briefly centrifuged, and the organic phase is transferred to a new tube using a gel loading pipette tip precoated with CHCl3. This extract is spotted on TLC plates and developed for 3-4 hours in a 65:35 solution of n-propanol:1 M acetic acid. The TLC plates are then dried, exposed to a phosphorimager screen (Storm, Amersham), and quantitated.
Briefly, the assay is a time resolved FRET assay that indirectly measures PIP3 product formed by the activity of a PI3-K. The kinase reaction is performed in a microtitre plate (e.g., a 384 well microtitre plate). The total reaction volume is approximately 20 ul per well. In the first step, each well receives 2 ul of test compound in 20% dimethylsulphoxide resulting in a 2% DMSO final concentration. Next, approximately 14.5 ul of a kinase/PIP2 mixture (diluted in 1× reaction buffer) is added per well for a final concentration of 0.25-0.3 ug/ml kinase and 10 uM PIP2. […] To start the reaction, 3.5 ul of ATP (diluted in 1× reaction buffer) is added per well for a final concentration of 10 uM ATP. The plate is sealed and incubated for 1 hour at room temperature. The reaction is stopped by adding 5 ul of Stop Solution per well and then 5 ul of Detection Mix is added per well. The plate is sealed, incubated for 1 hour at room temperature, and then read on an appropriate plate reader. Data is analyzed and IC50s are generated using GraphPad Prism 5.
DNA-PK can be purchased from Promega and assayed using the DNA-PK Assay System (Promega) according to the manufacturer's instructions.
The cross-activity or lack thereof of one or more compounds of the present invention against mTor can be measured according to any procedures known in the art or methods disclosed below. The compounds described herein can be tested against recombinant mTOR (Invitrogen) in an assay containing 50 mM HEPES, pH 7.5, 1 mM EGTA, 10 mM MgCl2, 2.5 mM, 0.01% Tween, 10 μM ATP (2.5 μCi of μ-32P-ATP), and 3 μg/mL BSA. Rat recombinant PHAS-¼EBP1 (Calbiochem; 2 mg/mL) is used as a substrate. Reactions are terminated by spotting onto nitrocellulose, which is washed with 1 M NaCl/1% phosphoric acid (approximately 6 times, 5-10 minutes each). Sheets are dried and the transferred radioactivity quantitated by phosphorimaging.
Other kits or systems for assaying mTOR activity are commercially available. For instance, one can use Invitrogen's LanthaScreen™ Kinase assay to test the inhibitors of mTOR disclosed herein. This assay is a time resolved FRET platform that measures the phosphorylation of GFP labeled 4EBP1 by mTOR kinase. The kinase reaction is performed in a white 384 well microtitre plate. The total reaction volume is 20 ul per well and the reaction buffer composition is 50 mM HEPES pH7.5, 0.01% Polysorbate 20, 1 mM EGTA, 10 mM MnCl2, and 2 mM DTT.

[5] = test system: OVA-induced allergic lung inflammation model; assay: Ovalbumin-induced lung inflammation assay; type: in vivo, rats; details: oral; bronchoalveolar lavage after 4 daily ovalbumin challenges
Method: In the ovalbumin-induced lung inflammation assay, compounds were dosed orally. A group was dosed with vehicle only and dexamethasone (5 mg/kg) was used in another group as positive control. Pulmonary inflammation was determined 4 days after 4 consecutive daily intranasal instillation of ovalbumin. Compounds were given by gavage 30 min before each challenge (4 challenges) at the indicated doses. The following parameters were evaluated: Total number of leukocytes and number of eosinophils in bronchoalveolar lavage (BAL).

[6] = test system: LPS-induced lung inflammation model; assay: LPS-induced lung inflammation assay; type: in vivo, rats; details: oral; bronchoalveolar lavage 6 h after intranasal LPS
Method: To perform the LPS-induced lung inflammation assay, compounds were dosed orally. A group was dosed with vehicle only and dexamethasone (5 mg/kg) was used in another group as positive control. Pulmonary inflammation was determined 6 h after intranasal instillation of LPS (10 μg). The following parameters were evaluated: total number of leukocytes and number of neutrophils in bronchoalveolar lavage (BAL).

SMILES | selectivity ratio [4] | also measured
CC(=O)Nc1nc2ccc(-c3nn(Cc4cc5cccc(C)c5c(=O)n4-c4ccccc4C)c4ncnc(N)c34)cc2s1 [Compound 53] |  | inhibition of allergen induced activation of basophilic granulocytes, active range (basophilic granulocytes): sub micromolar range; ankle histopathology, all categories ([1]; 60 mg/kg): statistically significant reduction in all categories of ankle histopathology; serum anti-type II collagen levels ([1]; 10, 20, and 60 mg/kg dosage levels): reducing the level of anti-type II collagen antibodies; also recorded: significant reduction; mean ankle diameter increase over time ([1]; 10, 30, and 60 mg/kg at 12 hour intervals, oral, relative to vehicle or methotrexate control): significant reduction in arthritis induced ankle diameter increase over time; ankle histopathology (inflammation, pannus, cartilage damage, bone resorption) ([1]; developing arthritis, oral): improving ankle histopathology; also recorded: significant reduction in one or more categories; knee histopathology ([1]; developing arthritis, oral): dose dependent reduction in knee histopathology; average paw volume increase ([2]; rat, in vivo): dose dependent reduction in the average paw volume increase; toxicity or other adverse reaction as measured by weight loss ([2]; rat, in vivo): does not exhibit toxicity or other adverse reaction; mean ankle diameter increase over time ([3]; once daily dosage): significant reduction in mean ankle diameter increase over time; mean ankle diameter increase over time ([3]; twice daily dosage): significant reduction in mean ankle diameter increase over time
C[C@H](Nc1ncnc2[nH]cnc12)c1cc2cccc(Cl)c2c(=O)n1-c1cccc(F)c1 [Compound 328] | ≥ 3 | 
C[C@H](Nc1ncnc2[nH]cnc12)c1cc2cccc(Cl)c2c(=O)n1-c1ccc(F)cc1 [Compound 329] | ≥ 3 | 
C[C@H](Nc1ncnc2[nH]cnc12)c1cc2cccc(F)c2c(=O)n1-c1ccccc1 [Compound 330] | ≥ 3 | 
C[C@H](Nc1ncnc2[nH]cnc12)c1cc2cccc(F)c2c(=O)n1-c1cccc(F)c1 [Compound 331] | ≥ 3 | 
C[C@H](Nc1ncnc2[nH]cnc12)c1cc2cccc(F)c2c(=O)n1-c1ccc(F)cc1 [Compound 332] | ≥ 3 | 
C[C@H](Nc1ncnc2[nH]c(Cl)nc12)c1cc2cccc(Cl)c2c(=O)n1-c1ccccc1 [Compound 333] | ≥ 3 | 
Cc1ccccc1-n1c(Cn2nc(-c3cn[nH]c3)c3c(N)ncnc32)cc2cccc(Cl)c2c1=O [Compound 336] | ≥ 3 | 
Nc1ncnc2c1c(-c1cn[nH]c1)nn2Cc1cc2cccc(Cl)c2c(=O)n1-c1ccccc1F [Compound 337] | ≥ 3 | 
Nc1ncnc2c1c(-c1cn[nH]c1)nn2Cc1cc2cccc(Cl)c2c(=O)n1-c1ccccc1 [Compound 338] | ≥ 3 | 
Nc1ncnc2c1c(-c1cn[nH]c1)nn2Cc1cc2cccc(Cl)c2c(=O)n1-c1cccc(F)c1 [Compound 339] | ≥ 3 | 
C[C@H](Nc1ncnc2c1ncn2C)c1cc2cccc(Cl)c2c(=O)n1-c1ccccc1 [Compound 340] | ≥ 3 | 
C[C@H](Nc1ncnc2sccc12)c1cc2cccc(Cl)c2c(=O)n1-c1ccccc1 [Compound 343] | ≥ 3 | 
C[C@H](Nc1ncnc2ccsc12)c1cc2cccc(Cl)c2c(=O)n1-c1ccccc1 [Compound 344] | ≥ 3 | 
C[C@H](Nc1nc(N)ncc1C(F)(F)F)c1cc2cccc(Cl)c2c(=O)n1-c1ccccc1 [Compound 346] | ≥ 3 | 
[2H]c1nc2c(N[C@@H](C)c3cc4cccc(C)c4c(=O)n3-c3ccccc3)ncnc2[nH]1 [Compound 349] | ≥ 3 | 
[2H]c1nc2c(N[C@@H](C)c3cc4cccc(Cl)c4c(=O)n3C3CC3)ncnc2[nH]1 [Compound 350] | ≥ 3 | 
Cc1csc2ncnc(N[C@@H](C)c3cc4cccc(Cl)c4c(=O)n3-c3ccccc3)c12 [Compound 352] | ≥ 3 | 
CNc1ncc(C(F)(F)F)c(N[C@@H](C)c2cc3cccc(Cl)c3c(=O)n2-c2ccccc2)n1 [Compound 354] | ≥ 3 | 
C[C@H](Nc1ncnc2[nH]cnc12)c1cc2ncccc2c(=O)n1-c1ccccc1 [Compound 357] | ≥ 3 | 
Cc1cccc2cc([C@H](C)Nc3ncnc4[nH]cnc34)n(-c3ccccc3)c(=O)c12 [compound 196] |  | increase in ankle diameter over time [1]: reducing the increase in ankle diameter over time
Cc1cccc2cc([C@H](C)Nc3ncnc4[nH]cnc34)n(C3CC3)c(=O)c12 [compound 200, (S)-3-(1-(9H-purin-6-ylamino)ethyl)-2-cyclopropyl-8-methylisoquinolin-1(2H)-one] |  | increase in ankle diameter over time [1]: reducing the increase in ankle diameter over time
C[C@H](Nc1ncnc2[nH]cnc12)c1cc2cccc(Cl)c2c(=O)n1C1CC1 [compound 270, (S)-3-(1-(9H-purin-6-ylamino)ethyl)-2-cyclopropyl-8-chloro-isoquinolin-1(2H)-one] |  | increase in ankle diameter over time [1]: reducing the increase in ankle diameter over time
C[C@H](Nc1ncnc2[nH]cnc12)c1cc2cccc(Cl)c2c(=O)n1-c1ccccc1 [compound 292, (S)-3-(1-(9H-purin-6-ylamino)ethyl)-8-chloro-2-phenylisoquinoline-1(2H)-one] |  | increase in ankle diameter over time [1]: reducing the increase in ankle diameter over time; increase in ankle diameter over time ([2]; dose not stated): reducing the increase in ankle diameter over time; eosinophil influx [5]: inhibiting eosinophil influx; LPS-induced total leukocyte neutrophil influx [6]: inhibiting LPS-induced total leukocyte neutrophil influx
